According to patent publication US20230322761A1, “DEGRADATION OF BRUTON'S TYROSINE KINASE (BTK) BY CONJUGATION OF BTK INHIBITORS WITH E3 LIGASE LIGAND AND METHODS OF USE” (BEIGENE, LTD., priority 2020, published 2023):

These compounds were tested against T1, BTK (Homo sapiens, UniProt Q06187) (assay: BTK degradation in TMD-8 cells, HTRF assay after 6 h treatment). Settings: IC50 (DC50) of BTK degradation.
T1 construct: endogenous in cells; host or cells: TMD-8 cells
Assay type: cell-based
Method in brief: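 Remaining BTK was quantified by HTRF in lysates of TMD-8 cells after 6 h exposure to an 8-point, 6-fold compound series (500× stocks in DMSO starting at 1 mM; 0.2% DMSO). Lysis 30 min, antibodies overnight at room temperature, ratio read at 665/620 nm; DC50 fitted with a four-parameter logistic equation.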

T1 sequence (Q06187 whole entry): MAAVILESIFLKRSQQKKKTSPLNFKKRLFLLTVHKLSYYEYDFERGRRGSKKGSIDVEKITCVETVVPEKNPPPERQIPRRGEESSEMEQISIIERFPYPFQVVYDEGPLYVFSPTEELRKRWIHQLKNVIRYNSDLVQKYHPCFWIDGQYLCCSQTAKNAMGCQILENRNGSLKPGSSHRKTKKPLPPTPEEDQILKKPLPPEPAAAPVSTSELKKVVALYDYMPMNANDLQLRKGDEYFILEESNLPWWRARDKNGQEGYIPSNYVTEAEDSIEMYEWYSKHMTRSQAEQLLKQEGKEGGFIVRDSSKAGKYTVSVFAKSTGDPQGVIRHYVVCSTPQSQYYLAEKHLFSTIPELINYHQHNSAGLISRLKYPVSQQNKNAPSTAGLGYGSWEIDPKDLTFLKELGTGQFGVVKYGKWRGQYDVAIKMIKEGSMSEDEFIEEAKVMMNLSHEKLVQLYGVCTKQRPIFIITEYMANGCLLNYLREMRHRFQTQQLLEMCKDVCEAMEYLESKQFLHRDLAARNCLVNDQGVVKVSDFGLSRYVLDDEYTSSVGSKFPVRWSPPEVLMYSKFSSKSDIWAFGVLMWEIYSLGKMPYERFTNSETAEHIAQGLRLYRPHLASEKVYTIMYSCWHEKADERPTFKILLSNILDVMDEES

Structure (SMILES) | DC50 [nM]
Cc1cc(-c2n[nH]c3nc(-c4ccc(N5CCN(CC6CCN(c7ccc(N8CCC(=O)NC8=O)cc7)CC6)CC5)cc4)ccc23)ccc1[C@@H](C)NC(=O)c1noc(C(C)(C)C)n1 [Example 157, (R)-5-(tert-butyl)-N-(1-(4-(6-(4-(4-((1-(4-(2,4-dioxotetrahydropyrimidin-1(2H)-yl)phenyl)piperidin-4-yl)methyl)piperazin-1-yl)phenyl)-1H-pyrazolo[3,4-b]pyridin-3-yl)-2-methylphenyl)ethyl)-1,2,4-oxadiazole-3-carboxamide] | 62.1
CC(C)(C)c1noc(C(=O)NCc2ccc(-c3n[nH]c4ncc(-c5ccc(C6CCN(CCc7ccc(C8CCC(=O)NC8=O)cc7)CC6)cc5)cc34)cc2F)n1 (stereo not drawn) [Example 14, 3-(tert-butyl)-N-(4-(5-(4-(1-(4-(2,6-dioxopiperidin-3-yl)phenethyl)piperidin-4-yl)phenyl)-1H-pyrazolo[3,4-b]pyridin-3-yl)-2-fluorobenzyl)-1,2,4-oxadiazole-5-carboxamide] | 4.74
Cc1cc(-c2n[nH]c3ncc(-c4ccc(N5CCN(CCc6ccc([C@@H]7CCC(=O)NC7=O)cn6)CC5)cc4)cc23)ccc1[C@@H](C)NC(=O)c1noc(C(C)(C)C)n1 [Example 139, 5-(tert-butyl)-N—((R)-1-(4-(5-(4-(4-(2-(5-((S)-2,6-dioxopiperidin-3-yl)pyridin-2-yl)ethyl)piperazin-1-yl)phenyl)-1H-pyrazolo[3,4-b]pyridin-3-yl)-2-methylphenyl)ethyl)-1,2,4-oxadiazole-3-carboxamide] | 1.03
Cc1cc(-c2n[nH]c3ncc(-c4ccc(N5CCN(CCc6ccc(C7CCC(=O)NC7=O)cn6)CC5)cc4)cc23)ccc1CNC(=O)c1noc(C(C)(C)C)n1 (stereo not drawn) [Example 229, 5-(tert-butyl)-N-(4-(5-(4-(4-(2-(5-(2,6-dioxopiperidin-3-yl)pyridin-2-yl)ethyl)piperazin-1-yl)phenyl)-1H-pyrazolo[3,4-b]pyridin-3-yl)-2-methylbenzyl)-1,2,4-oxadiazole-3-carboxamide] | 0.427
Cc1cc(-c2n[nH]c3ncc(-c4ccc(N5CCN(CC6CCN(c7ccc(N8CCC(=O)NC8=O)cc7F)CC6)CC5)cc4)cc23)ccc1[C@@H](C)NC(=O)c1noc(C(C)(C)C)n1 [Example 134, (R)-5-(tert-butyl)-N-(1-(4-(5-(4-(4-((1-(4-(2,4-dioxotetrahydropyrimidin-1(2H)-yl)-2-fluorophenyl)piperidin-4-yl)methyl)piperazin-1-yl)phenyl)-1H-pyrazolo[3,4-b]pyridin-3-yl)-2-methylphenyl)ethyl)-1,2,4-oxadiazole-3-carboxamide] | 9.96
Cc1cc(-c2n[nH]c3ncc(-c4ccc(N5CC6CN(CCc7ccc(C8CCC(=O)NC8=O)cc7)CC6C5)cn4)cc23)ccc1[C@@H](C)NC(=O)c1noc(C(C)(C)C)n1 (stereo partly drawn) [Example 174, 5-(tert-butyl)-N-((1R)-1-(4-(5-(5-(5-(4-(2,6-dioxopiperidin-3-yl)phenethyl)hexahydropyrrolo[3,4-c]pyrrol-2(1H)-yl)pyridin-2-yl)-1H-pyrazolo[3,4-b]pyridin-3-yl)-2-methylphenyl)ethyl)-1,2,4-oxadiazole-3-carboxamide] | 1.68
Cc1cc(-c2n[nH]c3ncc(-c4ccc(N5CCN(CCc6ccc(C7CCC(=O)NC7=O)cc6)CC5)cc4)cc23)ccc1[C@@H](C)NC(=O)c1nc(C(C)(C)C)no1 (stereo partly drawn) [Example 33, 3-(tert-butyl)-N-((1R)-1-(4-(5-(4-(4-(4-(2,6-dioxopiperidin-3-yl)phenethyl)piperazin-1-yl)phenyl)-1H-pyrazolo[3,4-b]pyridin-3-yl)-2-methylphenyl)ethyl)-1,2,4-oxadiazole-5-carboxamide] | 3.85
COc1cc(N2CCC(=O)NC2=O)ccc1N1CCC(CN2CCN(c3ccc(-c4cnc5[nH]nc(-c6ccc([C@@H](C)NC(=O)c7noc(C(C)(C)C)n7)c(C)c6)c5c4)cc3)CC2)CC1 [Example 171, (R)-5-(tert-butyl)-N-(1-(4-(5-(4-(4-((1-(4-(2,4-dioxotetrahydropyrimidin-1(2H)-yl)-2-methoxyphenyl)piperidin-4-yl)methyl)piperazin-1-yl)phenyl)-1H-pyrazolo[3,4-b]pyridin-3-yl)-2-methylphenyl)ethyl)-1,2,4-oxadiazole-3-carboxamide] | 3.52
Cc1cc(-c2n[nH]c3ncc(-c4ccc(N5CCN(CCc6ccc(C7CCC(=O)NC7=O)c(F)c6)CC5)cn4)cc23)ccc1[C@@H](C)NC(=O)c1noc(C(C)(C)C)n1 (stereo partly drawn) [Example 146, 5-(tert-butyl)-N-((1R)-1-(4-(5-(5-(4-(4-(2,6-dioxopiperidin-3-yl)-3-fluorophenethyl)piperazin-1-yl)pyridin-2-yl)-1H-pyrazolo[3,4-b]pyridin-3-yl)-2-methylphenyl)ethyl)-1,2,4-oxadiazole-3-carboxamide] | 1.74
Cc1cc(-c2n[nH]c3ncc(-c4ccc(N5CC6CC5CN6CC5CCN(c6ccc(N7CCC(=O)NC7=O)cc6)CC5)cn4)cc23)ccc1[C@@H](C)NC(=O)c1noc(C(C)(C)C)n1 (stereo partly drawn) [Example 127, 5-(tert-butyl)-N-((1R)-1-(4-(5-(5-(5-((1-(4-(2,4-dioxotetrahydropyrimidin-1(2H)-yl)phenyl)piperidin-4-yl)methyl)-2,5-diazabicyclo[2.2.1]heptan-2-yl)pyridin-2-yl)-1H-pyrazolo[3,4-b]pyridin-3-yl)-2-methylphenyl)ethyl)-1,2,4-oxadiazole-3-carboxamide] | 6.79
Cc1cc(-c2n[nH]c3ncc(-c4ccc(C5(O)CCN(CC6CCN(c7ccc(N8CCC(=O)NC8=O)cc7)CC6)CC5)cn4)cc23)ccc1[C@@H](C)NC(=O)c1nc(C(C)(C)C)no1 [Example 204, (R)-3-(tert-butyl)-N-(1-(4-(5-(5-(1-((1-(4-(2,4-dioxotetrahydropyrimidin-1(2H)-yl)phenyl)piperidin-4-yl)methyl)-4-hydroxypiperidin-4-yl)pyridin-2-yl)-1H-pyrazolo[3,4-b]pyridin-3-yl)-2-methylphenyl)ethyl)-1,2,4-oxadiazole-5-carboxamide] | 2.02
Cc1cc(-c2n[nH]c3ncc(-c4ccc(N5CCN(CC6CCN(c7ccc(N8CCC(=O)NC8=O)c(C)c7)CC6)CC5)cc4)cc23)ccc1[C@@H](C)NC(=O)c1noc(C2(CO)CC2)n1 [Example 185, (R)—N-(1-(4-(5-(4-(4-((1-(4-(2,4-dioxotetrahydropyrimidin-1(2H)-yl)-3-methylphenyl)piperidin-4-yl)methyl)piperazin-1-yl)phenyl)-1H-pyrazolo[3,4-b]pyridin-3-yl)-2-methylphenyl)ethyl)-5-(1-(hydroxymethyl)cyclopropyl)-1,2,4-oxadiazole-3-carboxamide] | 16.2
Cc1c(-c2n[nH]c3ncc(-c4ccc(C5CCN(CCc6ccc(C7CCC(=O)NC7=O)cc6)CC5)cc4)cc23)ccc(CNC(=O)c2nc(C(C)(C)C)no2)c1F (stereo not drawn) [Example 19, 3-(tert-butyl)-N-(4-(5-(4-(1-(4-(2,6-dioxopiperidin-3-yl)phenethyl)piperidin-4-yl)phenyl)-1H-pyrazolo[3,4-b]pyridin-3-yl)-2-fluoro-3-methylbenzyl)-1,2,4-oxadiazole-5-carboxamide] | 16.9
Cc1cc(-c2n[nH]c3ncc(-c4ccc(C5(F)CCN(CC6CCN(c7ccc(N8CCC(=O)NC8=O)cc7)CC6)CC5)cc4)cc23)ccc1[C@@H](C)NC(=O)c1nc(C(C)(C)C)no1 [Example 203, (R)-3-(tert-butyl)-N-(1-(4-(5-(4-(1-((1-(4-(2,4-dioxotetrahydropyrimidin-1(2H)-yl)phenyl)piperidin-4-yl)methyl)-4-fluoropiperidin-4-yl)phenyl)-1H-pyrazolo[3,4-b]pyridin-3-yl)-2-methylphenyl)ethyl)-1,2,4-oxadiazole-5-carboxamide] | 5.27
Cc1cc(-c2n[nH]c3ncc(-c4ccc(N5CCN(CCc6ccc([C@H]7CCC(=O)NC7=O)c(F)c6)CC5)cn4)cc23)ccc1[C@@H](C)NC(=O)c1noc(C(C)(C)C)n1 [Example 181, 5-(tert-butyl)-N—((R)-1-(4-(5-(5-(4-(4-((R)-2,6-dioxopiperidin-3-yl)-3-fluorophenethyl)piperazin-1-yl)pyridin-2-yl)-1H-pyrazolo[3,4-b]pyridin-3-yl)-2-methylphenyl)ethyl)-1,2,4-oxadiazole-3-carboxamide] | 1.24
Cc1cc(-c2n[nH]c3ncc(-c4ccc(C5CCN(CC6CCN(c7ccc(N8CCC(=O)NC8=O)cc7)CC6)CC5)cc4)cc23)c(F)cc1CNC(=O)c1nc(C(C)(C)C)no1 [Example 220, 3-(tert-butyl)-N-(4-(5-(4-(1-((1-(4-(2,4-dioxotetrahydropyrimidin-1(2H)-yl)phenyl)piperidin-4-yl)methyl)piperidin-4-yl)phenyl)-1H-pyrazolo[3,4-b]pyridin-3-yl)-5-fluoro-2-methylbenzyl)-1,2,4-oxadiazole-5-carboxamide] | 3.85
Cc1cc(-c2n[nH]c3ncc(-c4ccc(N5CCN(C6CCC(c7ccc(C8CCC(=O)NC8=O)c(F)c7)C6)CC5)cc4)cc23)ccc1[C@@H](C)NC(=O)c1nc(C(C)(C)C)no1 (stereo partly drawn) [Example 216, 3-(tert-butyl)-N-((1R)-1-(4-(5-(4-(4-(3-(4-(2,6-dioxopiperidin-3-yl)-3-fluorophenyl)cyclopentyl)piperazin-1-yl)phenyl)-1H-pyrazolo[3,4-b]pyridin-3-yl)-2-methylphenyl)ethyl)-1,2,4-oxadiazole-5-carboxamide] | 10.5
Cc1cc(-c2n[nH]c3ncc(-c4ccc(N5CCN(CCc6ccc([C@H]7CCC(=O)NC7=O)cc6)CC5)cn4)cc23)ccc1[C@@H](C)NC(=O)c1noc(C(C)(C)C)n1 [Example 162, 5-(tert-butyl)-N—((R)-1-(4-(5-(5-(4-(4-((R)-2,6-dioxopiperidin-3-yl)phenethyl)piperazin-1-yl)pyridin-2-yl)-1H-pyrazolo[3,4-b]pyridin-3-yl)-2-methylphenyl)ethyl)-1,2,4-oxadiazole-3-carboxamide] | 1.01

Same assay, conditions: TMD8, maximum percentage of inhibition (degradation)

Structure (SMILES) | Dmax [%]
CC(C)(C)c1noc(C(=O)NCc2ccc(-c3n[nH]c4ncc(-c5ccc(C6CCN(CCc7ccc(C8CCC(=O)NC8=O)cc7)CC6)cc5)cc34)cc2F)n1 (stereo not drawn) [Example 14, 3-(tert-butyl)-N-(4-(5-(4-(1-(4-(2,6-dioxopiperidin-3-yl)phenethyl)piperidin-4-yl)phenyl)-1H-pyrazolo[3,4-b]pyridin-3-yl)-2-fluorobenzyl)-1,2,4-oxadiazole-5-carboxamide] | 95.2
Cc1cc(-c2n[nH]c3ncc(-c4ccc(N5CCN(CCc6ccc(C7CCC(=O)NC7=O)cc6)CC5)cc4)cc23)ccc1[C@@H](C)NC(=O)c1nc(C(C)(C)C)no1 (stereo partly drawn) [Example 33, 3-(tert-butyl)-N-((1R)-1-(4-(5-(4-(4-(4-(2,6-dioxopiperidin-3-yl)phenethyl)piperazin-1-yl)phenyl)-1H-pyrazolo[3,4-b]pyridin-3-yl)-2-methylphenyl)ethyl)-1,2,4-oxadiazole-5-carboxamide] | 99.4
Cc1c(-c2n[nH]c3ncc(-c4ccc(C5CCN(CCc6ccc(C7CCC(=O)NC7=O)cc6)CC5)cc4)cc23)ccc(CNC(=O)c2nc(C(C)(C)C)no2)c1F (stereo not drawn) [Example 19, 3-(tert-butyl)-N-(4-(5-(4-(1-(4-(2,6-dioxopiperidin-3-yl)phenethyl)piperidin-4-yl)phenyl)-1H-pyrazolo[3,4-b]pyridin-3-yl)-2-fluoro-3-methylbenzyl)-1,2,4-oxadiazole-5-carboxamide] | 92.8
